Data reported in US20100227853A1, “INHIBITORS OF CYCLIC AMP PHOSPHODIESTERASES” (Trustees of Boston College, priority 2008, published 2010).

Tests used:
[1] = tested on: PDE4A, PDE4B, PDE4D, PDE7A, PDE7B, PDE8A, PDE3A; assay: Summary of PDE inhibitor profile; design: key to inhibitor class, Table 15: (1): Strong PDE4A5 inhibitor; (2): Strong PDE4A, 4B inhibitor; Moderate PDE4D inhibitor; (3): Strong PDE4A. 4B inhibitor; (4): Strong PDE4A, 4B, PDE7A inhibitor: Weak PDE4D inhibitor
PDE4B3 = target: T1, PDE4B3 (Mus musculus, UniProt Q8VBU5); assay: 5FOA growth assay in fission yeast strain expressing PDE4B3; format: cell-based, Murine; settings: for Composite Z score, PDE4B3: high throughput 5FOA growth screen
T1 construct: targets used in the assays are full-length proteins (as opposed to simply the catalytic domain); expressed in transfected cells; host or cells: Schizosaccharomyces pombe, PDE gene integrated in place of cgs2
T1 sequence (Q8VBU5 1-721): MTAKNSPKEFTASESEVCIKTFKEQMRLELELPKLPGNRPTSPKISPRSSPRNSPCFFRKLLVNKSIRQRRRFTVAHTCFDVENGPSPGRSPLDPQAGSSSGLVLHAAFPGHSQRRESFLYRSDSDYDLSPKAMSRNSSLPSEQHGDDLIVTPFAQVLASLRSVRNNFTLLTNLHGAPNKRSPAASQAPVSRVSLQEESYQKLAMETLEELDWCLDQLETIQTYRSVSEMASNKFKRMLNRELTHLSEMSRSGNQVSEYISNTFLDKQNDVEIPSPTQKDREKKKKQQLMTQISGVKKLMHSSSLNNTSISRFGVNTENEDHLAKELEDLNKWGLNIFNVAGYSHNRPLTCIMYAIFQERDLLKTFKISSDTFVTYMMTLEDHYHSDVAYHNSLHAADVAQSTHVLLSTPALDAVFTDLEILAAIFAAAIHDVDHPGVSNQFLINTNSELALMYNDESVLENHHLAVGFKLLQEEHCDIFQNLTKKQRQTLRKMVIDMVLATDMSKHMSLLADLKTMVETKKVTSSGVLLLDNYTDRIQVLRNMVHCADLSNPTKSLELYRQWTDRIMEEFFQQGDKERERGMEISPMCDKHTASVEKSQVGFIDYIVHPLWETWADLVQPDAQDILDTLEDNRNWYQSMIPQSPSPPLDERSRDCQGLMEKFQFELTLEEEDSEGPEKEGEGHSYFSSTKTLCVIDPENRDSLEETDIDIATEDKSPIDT
Description: (§1) High throughput drug screens were carried out at the Broad Institute's Chemical Biology Program screening facility (Broad Institute, Cambridge, Mass.). Depending upon the strain, cultures were pregrown to exponential phase in EMM complete medium containing from 0.5 to 2.5 mM cAMP to repress fbp1-ura4 transcription. […] Starting cell concentrations ranged from 0.5×10^5 to 4×10^5 cells/ml depending on the screening strain. […] Other positive control dishes contained 5 mM cAMP in the 5FOA medium. Cultures were grown for 48 hours at 30° C., sealed in an airtight container with moist paper towels to prevent evaporation. Optical densities (OD600) of cultures were measured using a microplate reader. Bioinformatic analysis of the results to determine composite Z scores was performed as previously described^30, 31.
(§2) To determine whether the 5FOA growth phenotype could be exploited for high throughput drug screening, strains expressing PDE2A, PDE4A, PDE4B, or PDE8A were pre-grown in EMM medium containing cAMP and then transferred to 5FOA medium in 384 well microtiter plates in the presence or absence of cAMP. OD600 measurements were taken after 48 hours incubation at 30° C.
(§3) Cells were pregrown in EMM medium [MP Biomedicals (Solon, Ohio), 3% glucose, filter-sterilized to avoid carmelization, which would introduce variability into the optical density of the medium] containing from 0 mM to 2.5 mM cAMP (or either 0.5 mM or 1.0 mM cGMP). This was to repress expression of the fbp1-ura4 reporter prior to exposure of cells to 5FOA medium. Cells were grown at 30° C. to exponential phase (approximately 10^7 cells/ml). […] Starting cell concentrations ranged from 0.5×10^5 to 4×10^5 cells/ml depending on the screening strain. […] Other positive control dishes contained 5 mM cAMP in the 5FOA medium for PDEs that lack appropriate control compounds. Cultures were grown for 48 hours at 30° C., sealed in an airtight container with moist paper towels to prevent evaporation. Optical densities (OD600) of cultures were measured using a microplate reader. Bioinformatic analysis of the results to determine composite Z scores was performed as previously described (1, 3).

PDE4A5 = target: T2, PDE4A5 (Rattus norvegicus, UniProt P54748); assay: 5FOA growth assay in fission yeast strain expressing PDE4A5; format: cell-based; settings: 20 uM
T2 construct: targets used in the assays are full-length proteins (as opposed to simply the catalytic domain); expressed in transfected cells; host or cells: Schizosaccharomyces pombe, PDE gene integrated in place of cgs2
T2 sequence (P54748 1-844): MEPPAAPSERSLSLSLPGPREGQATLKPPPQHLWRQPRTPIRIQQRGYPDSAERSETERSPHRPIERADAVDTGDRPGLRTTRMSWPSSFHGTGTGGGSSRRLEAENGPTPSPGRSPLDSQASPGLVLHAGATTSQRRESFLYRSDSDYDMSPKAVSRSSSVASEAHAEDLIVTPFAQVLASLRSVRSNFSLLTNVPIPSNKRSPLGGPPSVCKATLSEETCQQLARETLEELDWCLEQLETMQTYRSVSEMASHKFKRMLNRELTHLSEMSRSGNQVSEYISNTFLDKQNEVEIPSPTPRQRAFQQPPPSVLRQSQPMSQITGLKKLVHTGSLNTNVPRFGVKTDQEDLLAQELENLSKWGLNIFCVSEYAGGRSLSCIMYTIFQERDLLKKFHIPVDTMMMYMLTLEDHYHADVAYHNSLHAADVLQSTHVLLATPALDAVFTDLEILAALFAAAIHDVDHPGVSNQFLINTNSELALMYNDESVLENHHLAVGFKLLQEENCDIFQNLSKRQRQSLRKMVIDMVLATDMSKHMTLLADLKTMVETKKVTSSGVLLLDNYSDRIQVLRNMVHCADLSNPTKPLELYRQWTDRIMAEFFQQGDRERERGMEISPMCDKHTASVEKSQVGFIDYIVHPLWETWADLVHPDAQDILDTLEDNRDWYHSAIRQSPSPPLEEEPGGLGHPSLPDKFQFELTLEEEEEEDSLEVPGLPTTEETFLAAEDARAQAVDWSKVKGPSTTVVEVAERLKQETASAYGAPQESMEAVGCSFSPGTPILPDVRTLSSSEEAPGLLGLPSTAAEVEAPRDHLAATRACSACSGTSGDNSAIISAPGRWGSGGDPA
Description: High throughput drug screens were carried out at the Broad Institute's Chemical Biology Program screening facility (Broad Institute, Cambridge, Mass.). Depending upon the strain, cultures were pregrown to exponential phase in EMM complete medium containing from 0.5 to 2.5 mM cAMP to repress fbp1-ura4 transcription. Cells were collected by centrifugation, resuspended in 5FOA medium, and 25 μl were transferred to 384-well microtiter dishes (untreated, with flat clear bottoms) that had been pre-filled with 25 μl 5FOA medium and pre-pinned with 100 nl of compounds (stock solutions were generally 10 mM) from a subset of the Prestwick Bioactive and the Microsource Spectrum compound libraries. Starting cell concentrations ranged from 0.5×10^5 to 4×10^5 cells/ml depending on the screening strain. […] Other positive control dishes contained 5 mM cAMP in the 5FOA medium. Cultures were grown for 48 hours at 30° C., sealed in an airtight container with moist paper towels to prevent evaporation. Optical densities (OD600) of cultures were measured using a microplate reader. Bioinformatic analysis of the results to determine composite Z scores was performed as previously described^30, 31.
(§4) Cells were pregrown in EMM medium [MP Biomedicals (Solon, Ohio), 3% glucose, filter-sterilized to avoid carmelization, which would introduce variability into the optical density of the medium] containing from 0 mM to 2.5 mM cAMP (or either 0.5 mM or 1.0 mM cGMP). This was to repress expression of the fbp1-ura4 reporter prior to exposure of cells to 5FOA medium. Cells were grown at 30° C. to exponential phase (approximately 10^7 cells/ml). Cells were collected by centrifugation and resuspended in 5FOA medium, and 25 μl were transferred to 384-well microtiter dishes (untreated, with flat clear bottoms) that had been pre-filled with 25 μl 5FOA medium and pre-pinned with 100 nl of compounds (stock solutions were generally 10 mM). Starting cell concentrations ranged from 0.5×10^5 to 4×10^5 cells/ml depending on the screening strain. […] Other positive control dishes contained 5 mM cAMP in the 5FOA medium for PDEs that lack appropriate control compounds. Cultures were grown for 48 hours at 30° C., sealed in an airtight container with moist paper towels to prevent evaporation. Optical densities (OD600) of cultures were measured using a microplate reader. Bioinformatic analysis of the results to determine composite Z scores was performed as previously described (1, 3).

PDE7A = PDE7A (Homo sapiens, UniProt Q13946); assay: 5FOA growth assay in fission yeast strain expressing PDE7A; format: cell-based; design: targets used in the assays are full-length proteins (as opposed to simply the catalytic domain); expressed in transfected cells; host or cells: Schizosaccharomyces pombe, PDE gene integrated in place of cgs2; settings: high throughput 5FOA growth screen
Description: PDE inhibition allows growth in 5FOA medium as measured by optical density after 48 hours incubation at 30° C. Compound BC12 and six structural analogs were tested for growth stimulation.
as §4

PDE4A1 = target: T3, PDE4A1 (Mus musculus, UniProt O89084); assay: 5FOA growth assay (high throughput screen, ED50) in fission yeast strain expressing PDE4A1; format: cell-based; settings: high throughput 5FOA growth screen; greater than 8.53 = statistically-significant inhibitor
T3 construct: targets used in the assays are full-length proteins (as opposed to simply the catalytic domain); expressed in transfected cells; host or cells: Schizosaccharomyces pombe, PDE gene integrated in place of cgs2
T3 sequence (O89084 1-610 isoform O89084-2): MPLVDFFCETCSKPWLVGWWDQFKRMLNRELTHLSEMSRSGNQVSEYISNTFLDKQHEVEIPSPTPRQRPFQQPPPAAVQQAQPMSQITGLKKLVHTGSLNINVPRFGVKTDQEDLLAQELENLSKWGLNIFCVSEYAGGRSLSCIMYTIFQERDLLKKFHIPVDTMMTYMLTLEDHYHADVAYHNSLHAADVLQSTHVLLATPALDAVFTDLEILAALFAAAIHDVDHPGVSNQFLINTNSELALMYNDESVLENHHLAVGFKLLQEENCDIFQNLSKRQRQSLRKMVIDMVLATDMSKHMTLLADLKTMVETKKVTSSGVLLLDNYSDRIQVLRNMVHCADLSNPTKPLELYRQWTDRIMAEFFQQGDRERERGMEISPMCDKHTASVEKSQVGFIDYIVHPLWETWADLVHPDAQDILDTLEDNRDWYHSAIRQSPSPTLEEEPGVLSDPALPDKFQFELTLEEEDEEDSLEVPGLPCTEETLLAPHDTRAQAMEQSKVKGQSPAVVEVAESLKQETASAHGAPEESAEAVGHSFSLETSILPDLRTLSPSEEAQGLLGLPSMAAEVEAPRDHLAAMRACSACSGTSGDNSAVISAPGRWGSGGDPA
Description: as §1, §2, §3

PDE7A, sequence (Q13946 whole entry, the tested form may be a part): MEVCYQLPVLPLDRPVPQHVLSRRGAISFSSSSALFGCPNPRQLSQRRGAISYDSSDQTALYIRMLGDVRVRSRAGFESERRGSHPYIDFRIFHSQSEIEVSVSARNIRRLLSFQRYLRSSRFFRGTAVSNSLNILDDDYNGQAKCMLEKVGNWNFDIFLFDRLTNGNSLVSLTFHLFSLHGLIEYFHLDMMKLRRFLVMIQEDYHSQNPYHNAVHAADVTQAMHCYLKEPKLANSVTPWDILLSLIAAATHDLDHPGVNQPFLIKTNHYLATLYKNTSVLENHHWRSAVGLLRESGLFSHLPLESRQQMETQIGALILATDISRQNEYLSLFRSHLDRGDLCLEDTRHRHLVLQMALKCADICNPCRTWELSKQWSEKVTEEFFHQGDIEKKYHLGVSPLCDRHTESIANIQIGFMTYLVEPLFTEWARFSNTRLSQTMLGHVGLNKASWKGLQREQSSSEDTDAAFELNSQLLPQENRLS

COC(=O)C1=C(C)N(c2ccccc2Cl)C(=O)/C1=C\c1cccs1 [Compound 27-8]
inhibitor class, Table 15 [1]: 27-8 (2)

COC(=O)C1=C(C)N(c2cccc(C)c2)C(=O)/C1=C\c1cccs1 [Compound 27-5]
inhibitor class, Table 15 [1]: 27-5 (2)

COC(=O)C1=C(C)N(c2ccc(F)cc2)C(=O)/C1=C\c1cccs1 [Compound 27-6]
inhibitor class, Table 15 [1]: 27-6 (4)

COC(=O)c1sc(SC)c(C#N)c1-c1ccco1 [2055, C21]
1 Assay (20 uM) 4B3 (PDE4B3): 21.4955 ND ND ND ND
1 Assay (20 uM) 4A5 (PDE4A5): 2.07 ND ND ND ND

COC(=O)C1=C(C)N(CC(C)C)C(=O)/C1=C\c1ccco1 [Compound 27-2]
inhibitor class, Table 15 [1]: 27-2 (2)

COC(=O)C1=C(C)N(c2cccc(C(F)(F)F)c2)C(=O)/C1=C\c1cccs1 [Compound 27-7]
inhibitor class, Table 15 [1]: 27-7 (3)

c1nc(NC2CCCC2)c2c3c(sc2n1)CCC3 [2084 E21]
Composite Z score, PDE7A (PDE7A): 18.891
Composite Z score, PDE4B3 (PDE4B3): 0.593
Composite Z score, PDE4A1 (PDE4A1): 29.047

Cc1sc2ncnc(N3CCN(CCO)CC3)c2c1C [Compound 2084A21]
Composite Z score, PDE7A (PDE7A): 0.0079
Composite Z score, PDE4B3 (PDE4B3): 0.6718
Composite Z score, PDE4A1 (PDE4A1): 0.1942

Cc1sc2ncnc(NCc3cccnc3)c2c1C [Compound 2081F17]
Composite Z score, PDE7A (PDE7A): 0.439
Composite Z score, PDE4B3 (PDE4B3): 1.6993
Composite Z score, PDE4A1 (PDE4A1): 0.1374

c1ccc(CN2CCN(c3ncnc4sc5c(c34)CCCCC5)CC2)cc1 [Compound 2074A07]
Composite Z score, PDE7A (PDE7A): 0.7527
Composite Z score, PDE4B3 (PDE4B3): 0.8366
Composite Z score, PDE4A1 (PDE4A1): −0.348

CCOC(=O)c1sc2sc(C(=O)OCC)c(-c3ccc(Cl)cc3)c2c1N [2055, N01]
1 Assay (20 uM) 4B3 (PDE4B3): 1.8421 ND ND ND ND
1 Assay (20 uM) 4A5 (PDE4A5): 0.582 ND ND ND ND

CCN(CC)CCCNc1ncnc2sc3c(c12)CC(C)CC3 (stereo not drawn) [Compound 2083L15]
Composite Z score, PDE7A (PDE7A): −1.18
Composite Z score, PDE4B3 (PDE4B3): −0.877
Composite Z score, PDE4A1 (PDE4A1): 1.9931

O=C(Nc1ncnc2sc3c(c12)CCC3)c1cccs1 [Compound 2084I06]
Composite Z score, PDE7A (PDE7A): 12.419
Composite Z score, PDE4B3 (PDE4B3): 0.9421
Composite Z score, PDE4A1 (PDE4A1): 7.8022
